Square brackets hold non-standard residues; d marks the D form. Peptide text beside a SMILES is read from it. * marks the point of attachment. CH2CH2OBz(4-tBu) = CC(C)(C)c1ccc(C(=O)OCC*)cc1; dDab = NCC[C@@H](N)C(=O)O; Dab = NCC[C@H](N)C(=O)O; Mpa = O=C(O)CCS
Test system: E. coli, P. aeruginosa, A. calcoaceticus and S. aureus
Test: MIC and MBC summarised across the test species
Assay type: cell-based
Settings: species not given

| Compound | lowest MIC values of the CLipPA analogues |
| --- | --- |
| CC(C)C[C@H](NC(=O)[C@H](CCN)NC(=O)[C@H](CCN)NC(=O)[C@@H](Cc1ccccc1)NC(=O)[C@H](CC(C)C)NC(=O)[C@H](CCN)NC(=O)[C@H](CCN)NC(=O)[C@@H](CCN)NC(=O)[C@@H](N)CSCCOC(=O)c1ccc(C(C)(C)C)cc1)C(N)=O [Peptide 12f] (H-C(CH2CH2OBz(4-tBu))[dDab][Dab][Dab]L[dF][Dab][Dab]L-NH2) | 8 μM |
| CC(C)C[C@H](NC(=O)[C@H](CCN)NC(=O)[C@H](CCN)NC(=O)[C@@H](Cc1ccccc1)NC(=O)[C@H](CC(C)C)NC(=O)[C@H](CCN)NC(=O)[C@H](CCN)NC(=O)[C@@H](CCN)NC(=O)CCSCCOC(=O)c1ccc(C(C)(C)C)cc1)C(N)=O [Peptide 13f] ([Mpa](CH2CH2OBz(4-tBu))[dDab][Dab][Dab]L[dF][Dab][Dab]L-NH2) | 8 μM |

From publication PMC8159387 (Chemical Science, 2020)
